Test results taken from patent US9498513B2, “Antimicrobial bacteria strains and uses thereof” (priority 2010, dated 2016).

How the values were obtained:
S. aureus (MRSA) = test: Antimicrobial activity against susceptible and resistant strains (dilution); assay type: cell-based, Staphylococcus aureus; settings: given as dilution ratio; antibiotics 1.28 mg/ml
Protocol: (§1) A concentrated antimicrobial compound (CAC) was prepared as an antimicrobial agent. 2.1 L of an overnight bacterial culture of G346a was centrifuged at 10,000× g for 20 min, and then subject to 0.2 μm filtration. The supernatant was subject to 10-15% TCA precipitation for 1 hour, and then centrifugation at 4,000× for 20 min. The pellet was re-suspended in 3 mL 50 mM NH4HCO3, and then neutralized with 320 μL NH4OH. The resulting concentrated antimicrobial compound (CAC) was tested for its antimicrobial activity against susceptible and resistant strains as shown in TABLE 5.

A. Baumannii (MDR) = test: as above; assay type: cell-based, Acinetobacter baumannii; settings: given as dilution ratio; antibiotics 1.28 mg/ml
Protocol: as §1

CC1(C)S[C@@H]2[C@H](NC(=O)[C@H](N)c3ccccc3)C(=O)N2[C@H]1C(=O)O [Ampicillin]
antimicrobial activity S. aureus (MRSA) (S. aureus (MRSA)): No | antimicrobial activity A. Baumannii (MDR) (A. Baumannii (MDR)): No Inhibition

CC1(C)S[C@@H]2[C@H](NC(=O)C(C(=O)O)c3ccccc3)C(=O)N2[C@H]1C(=O)O (stereo partly shown) [Carbenicillin]
antimicrobial activity S. aureus (MRSA) (S. aureus (MRSA)): No | antimicrobial activity A. Baumannii (MDR) (A. Baumannii (MDR)): No Inhibition
